Values quoted from earlier work, collected in US8329231B2, “Method of preventing photo-aging with ashwagandha and Indian gooseberry” (Nutragenesis, LLC, priority 2008, dated 2012).

Details: values from the literature

O=C1O[C@H]([C@@H](O)CO)C(O)=C1O [Vitamin C]
HORAC (published, literature): 0 units
